From patent US5475087A, “Antagonists of human granulocyte-macrophage colony stimulating factor derived from the carboxyl terminus” (Schering Corporation, priority 1994, dated 1995) come the findings set out here.

pKd: −log10 of the molar value.

Assay [1] deals with GM-CSF stimulation of KG-1 cell proliferation. Briefly: KG-1 cell proliferation assay (MTT). The format is cell-based, human. As to the method: The assay for GM-CSF is based on stimulation of proliferation of suitable cells such as KG-1 cells, a cell line established from the bone marrow of a patient with acute myelogenous leukemia. AML-193 cells can also be used in this assay. AML-193 are cells as described in B. Lange et al., Blood, 70: 192-199 (1987). Cells are incubated in microtiter plate wells with dilutions of GM-CSF for about 6 days and then incubated for about an additional 4 hours with the tetrazolium salt MTT (3-(4,5-dimethylthiozol-2-yl)-2,5-diphenyltetrazolium bromide). MTT is converted by mitochondrial dehydrogenase enzymes to a colored reaction product, formazan (Mosmann, I. (1983) J. Immunological Methods 65, 55-63). The formazan is extracted with acidified isopropanol and measured spectrophotometrically. The observed optical density is directly proportional to the log2 cell concentration. The results are expressed as ΔO.D., where ΔO.D. is the optical density of the sample minus the optical density of a baseline control lacking GM-CSF. […] The formazan is extracted with acidified isopropanol and measured spectrophotometrically. […] The results are expressed as ΔO.D., where ΔO.D. is the optical density of the sample minus the optical density of a baseline control lacking GM-CSF. […]

The target in assay [2] is GM-CSF receptors on placental membranes. Briefly: GM-CSF receptor binding assay on placental membranes. How it is done: Placental membranes are prepared by homogenization, centrifugation to remove the 100×g fraction, and thorough washing of the 27,300×g fraction. Protease inhibitors may be present in the homogenization and wash buffers. […] Following incubation for about 1 hour at about 22° C., samples are centrifuged for about 21/2 minutes at 800×g and the placental membrane pellet washed twice with IMDM-10% FCS. Cell pellets are counted on a gamma counter. Saturating concentrations of unlabeled GM-CSF are added to control assays to measure non-specific binding. To measure the displacement of ^125 I-GM-CSF from receptors by polyclonal antibodies, antisera or pre-immune sera are included in the binding assays. Antibodies that recognize GM-CSF are incubated for about 10 minutes with ^125 I-GM-CSF prior to initiating binding by the addition of KG-1 cells, AML-193 cells or placental membranes. The sheep polyclonal antibody 1418, which recognized the GM-CSF receptor, is pre-incubated for about 10 minutes with KG-1 cells, AML-193 cells or placental membranes. Binding is initiated by ^125 I-GM-CSF addition. Placental membranes were prepared by homogenization, centrifugation to remove the 100×g fraction, and thorough washing of the 27,300×g fraction. Protease inhibitors were present in the homogenization and wash buffers. […] Cell pellets were counted on a gamma counter. […]

Assay [3] deals with GM-CSF receptors on KG-1 cells. Briefly: GM-CSF receptor binding assay on KG-1 cells. More on the design: species or system human. The following applies: 2700 sites/cell, read-out: Kd, low affinity site. As to the method: GM-CSF is radioiodinated by the method of Bolton and Hunter (Bolton, A. E. & Hunter, W. M. (1973) Biochem. J. 133, 529-539) and purified by gel filtration on a Sephadex G-25 column (PD-10, Pharmacia). The resulting ^125 I-GM-CSF has a specific radioactivity of about 1-3×10^6μCi/μMole and a stoichiometry of 0.4-1.2 moles ^125 I per mole of GM-CSF.
The samples are incubated at about 22° C. or 4° C. for 1 hour or 2 hours, respectively. Centrifugation for 21/2 minutes at 600×g yields a cell pellet which is washed twice with IMDM-10% FCS.
To measure the displacement of ^125 I-GM-CSF from receptors by polyclonal antibodies, antisera or pre-immune sera are included in the binding assays. Antibodies that recognize GM-CSF are incubated for about 10 minutes with ^125 I-GM-CSF prior to initiating binding by the addition of KG-1 cells, AML-193 cells or placental membranes. The sheep polyclonal antibody 1418, which recognized the GM-CSF receptor, is pre-incubated for about 10 minutes with KG-1 cells, AML-193 cells or placental membranes. Binding is initiated by ^125 I-GM-CSF addition.
GM-CSF (an article of commerce available, e.g., from Genzyme Corporation, Boston, Mass.) was radioiodinated by the method of Bolton and Hunter [Bolton, A. E. & Hunter, W. M., Biochem., J., 133: 529-539 (1973)] and purified by gel filtration on a Sephadex G-25 column (PD-10, Pharmacia). […]

The pKd is the negative decadic logarithm of the Kd, by convention in mol/L. For “^125 I-GM-CSF: GM-CSF radioiodinated by the method of Bolton and Hunter, purified by gel filtration”, the “biological activity compared with unlabeled GM-CSF” value in assay [1] is recorded as “same biological activity as unlabeled GM-CSF”. In addition, the pKd is 9.07 in assay [2] and 9.14 in assay [3].
